The record followed here is ChEMBL document CHEMBL3994622, “Design and synthesis of new RAF kinase-inhibiting antiproliferative quinoline derivatives. Part 2: Diarylurea derivatives” (Eur J Med Chem, 2017).

SMILES strings stand for the structures.

Type in all cases: functional
For experiment [1], the system named is TK-10. Kind of experiment: Growth inhibition of human TK10 cells assessed as cell growth at 100 uM incubated for 48 hrs by sulforhodamine B assay relative to control. The following applies: TK-10, 48 h, read-out: Activity.
Experiment [2] has as its system 786-0. Nature of the experiment: Growth inhibition of human 786-0 cells assessed as cell growth at 0.1 uM incubated for 48 hrs by sulforhodamine B assay relative to control. To be noted: 786-0, 48 h, read-out: Activity. A general note: The SRB assay estimates cell density from bound dye.
In experiment [3] the test system is SNB-19. Kind of experiment: Growth inhibition of human SNB19 cells assessed as cell growth at 0.1 uM incubated for 48 hrs by sulforhodamine B assay relative to control. The following applies: SNB-19, 48 h, read-out: Activity.
For experiment [4], the system named is OVCAR-3. Kind of experiment: Growth inhibition of human OVCAR3 cells assessed as cell growth at 10 uM incubated for 48 hrs by sulforhodamine B assay relative to control. To be noted: OVCAR-3, 48 h, read-out: Activity.
Experiment [5] deals with MDA-MB-435. Nature of the experiment: Growth inhibition of human MDA-MB-435 cells assessed as cell growth at 10 uM incubated for 48 hrs by sulforhodamine B assay relative to control. The following applies: MDA-MB-435, 48 h, read-out: Activity.
For experiment [6], the system named is A498. Nature of the experiment: Growth inhibition of human A498 cells assessed as cell growth at 100 uM incubated for 48 hrs by sulforhodamine B assay relative to control. The following applies: A498, 48 h, read-out: Activity.
Experiment [7] concerns NCI/ADR-RES. Kind of experiment: Growth inhibition of human NCI/ADR-RES cells assessed as cell growth at 0.01 uM incubated for 48 hrs by sulforhodamine B assay relative to control. To be noted: read-out: Activity.
The test system of experiment [8] is SF-539. Kind of experiment: Growth inhibition of human SF539 cells assessed as cell growth at 1 uM incubated for 48 hrs by sulforhodamine B assay relative to control. To be noted: SF-539, 48 h, read-out: Activity.
Experiment [9] concerns U-251. Kind of experiment: Growth inhibition of human U251 cells assessed as cell growth at 100 uM incubated for 48 hrs by sulforhodamine B assay relative to control. To be noted: U-251, 48 h, read-out: Activity.
The subject of experiment [10] is NCI-H23. Kind of experiment: Growth inhibition of human NCI-H23 cells assessed as cell growth at 0.01 uM incubated for 48 hrs by sulforhodamine B assay relative to control. The following applies: NCI-H23, 48 h, read-out: Activity.
Experiment [11] has as its system IGROV-1. Nature of the experiment: Growth inhibition of human IGROV1 cells assessed as cell growth at 0.1 uM incubated for 48 hrs by sulforhodamine B assay relative to control. The following applies: IGROV-1, 48 h, read-out: Activity.
Experiment [12] has as its system SK-OV-3. Nature of the experiment: Growth inhibition of human SKOV3 cells assessed as cell growth at 100 uM incubated for 48 hrs by sulforhodamine B assay relative to control. To be noted: SK-OV-3, 48 h, read-out: Activity.
For experiment [13], the system named is DU-145. Kind of experiment: Growth inhibition of human DU145 cells assessed as cell growth at 10 uM incubated for 48 hrs by sulforhodamine B assay relative to control. The following applies: DU-145, 48 h, read-out: Activity.
Experiment [14] has as its system HCC 2998. Nature of the experiment: Growth inhibition of human HCC2998 cells assessed as cell growth at 10 uM incubated for 48 hrs by sulforhodamine B assay relative to control. The following applies: HCC 2998, 48 h, read-out: Activity.
The test system of experiment [15] is MDA-MB-231. Kind of experiment: Growth inhibition of human MDA-MB-231 cells assessed as cell growth at 0.01 uM incubated for 48 hrs by sulforhodamine B assay relative to control. To be noted: MDA-MB-231, 48 h, read-out: Activity.
The subject of experiment [16] is U-251. Kind of experiment: Growth inhibition of human U251 cells assessed as cell growth at 0.01 uM incubated for 48 hrs by sulforhodamine B assay relative to control. The following applies: U-251, 48 h, read-out: Activity.
Experiment [17] deals with A549. Kind of experiment: Growth inhibition of human A549/ATCC cells assessed as cell growth at 0.01 uM incubated for 48 hrs by sulforhodamine B assay relative to control. The following applies: A549, 48 h, read-out: Activity.
Experiment [18] relates to MOLT-4. Kind of experiment: Growth inhibition of human MOLT4 cells assessed as cell growth at 0.1 uM incubated for 48 hrs by sulforhodamine B assay relative to control. To be noted: MOLT-4, 48 h, read-out: Activity.
The test system of experiment [19] is IGROV-1. Nature of the experiment: Growth inhibition of human IGROV1 cells assessed as cell growth at 0.01 uM incubated for 48 hrs by sulforhodamine B assay relative to control. The following applies: IGROV-1, 48 h, read-out: Activity.
Experiment [20] concerns UACC-62. Nature of the experiment: Growth inhibition of human UACC62 cells assessed as cell growth at 0.1 uM incubated for 48 hrs by sulforhodamine B assay relative to control. To be noted: UACC-62, 48 h, read-out: Activity.
Experiment [21] deals with ACHN. Nature of the experiment: Growth inhibition of human ACHN cells assessed as cell growth at 0.3 uM incubated for 48 hrs by sulforhodamine B assay relative to control. To be noted: read-out: Activity.
Experiment [22] relates to RPMI-8226. Kind of experiment: Growth inhibition of human RPMI8226 cells assessed as cell growth at 0.3 uM incubated for 48 hrs by sulforhodamine B assay relative to control. The following applies: RPMI-8226, 48 h, read-out: Activity.
The test system of experiment [23] is Hs-578T. Nature of the experiment: Growth inhibition of human Hs 578T cells assessed as cell growth at 0.3 uM incubated for 48 hrs by sulforhodamine B assay relative to control. The following applies: read-out: Activity.
The subject of experiment [24] is OVCAR-5. Nature of the experiment: Growth inhibition of human OVCAR5 cells assessed as cell growth at 0.003 uM incubated for 48 hrs by sulforhodamine B assay relative to control. The following applies: OVCAR-5, 48 h, read-out: Activity.
In experiment [25] the test system is OVCAR-8. Kind of experiment: Growth inhibition of human OVCAR8 cells assessed as cell growth at 0.3 uM incubated for 48 hrs by sulforhodamine B assay relative to control. To be noted: OVCAR-8, 48 h, read-out: Activity.
Experiment [26] relates to UO-31. Kind of experiment: Growth inhibition of human UO31 cells assessed as cell growth at 3 uM incubated for 48 hrs by sulforhodamine B assay relative to control. The following applies: UO-31, 48 h, read-out: Activity.
In experiment [27] the test system is HOP-92. Kind of experiment: Growth inhibition of human HOP92 cells assessed as cell growth at 0.3 uM incubated for 48 hrs by sulforhodamine B assay relative to control. To be noted: HOP-92, 48 h, read-out: Activity.
The test system of experiment [28] is HL-60(TB). Nature of the experiment: Growth inhibition of human HL-60(TB) cells assessed as cell growth at 3 uM incubated for 48 hrs by sulforhodamine B assay relative to control. To be noted: HL-60, 48 h, read-out: Activity.
For experiment [29], the system named is NCI/ADR-RES. Nature of the experiment: Growth inhibition of human NCI/ADR-RES cells assessed as cell growth at 30 uM incubated for 48 hrs by sulforhodamine B assay relative to control. The following applies: read-out: Activity.
Experiment [30] deals with MDA-MB-435. Kind of experiment: Growth inhibition of human MDA-MB-435 cells assessed as cell growth at 3 uM incubated for 48 hrs by sulforhodamine B assay relative to control. To be noted: MDA-MB-435, 48 h, read-out: Activity.
Experiment [31] concerns HCC 2998. Kind of experiment: Growth inhibition of human HCC2998 cells assessed as cell growth at 0.3 uM incubated for 48 hrs by sulforhodamine B assay relative to control. To be noted: HCC 2998, 48 h, read-out: Activity.
The subject of experiment [32] is MOLT-4. Kind of experiment: Growth inhibition of human MOLT4 cells assessed as cell growth at 30 uM incubated for 48 hrs by sulforhodamine B assay relative to control. To be noted: MOLT-4, 48 h, read-out: Activity.
In experiment [33] the test system is OVCAR-3. Nature of the experiment: Growth inhibition of human OVCAR3 cells assessed as cell growth at 3 uM incubated for 48 hrs by sulforhodamine B assay relative to control. To be noted: OVCAR-3, 48 h, read-out: Activity.
In experiment [34] the test system is SK-OV-3. Nature of the experiment: Growth inhibition of human SKOV3 cells assessed as cell growth at 30 uM incubated for 48 hrs by sulforhodamine B assay relative to control. To be noted: SK-OV-3, 48 h, read-out: Activity.

As to `COc1cc2cc(Oc3ccc(NC(=O)Nc4cc(C(F)(F)F)cc(C(F)(F)F)c4)cc3)c(C)nc2cc1OC`, the growth at 100 µM is -95% in [1], -93% in [6], -83% in [9] and -89% in experiment [12]. The growth at 0.1 µM in experiment [2] was determined as 92%; in experiment [3] it was 97%; in experiment [11], 95%; in experiment [18] it was 104%; in [20], 96%. In addition, the growth at 10 µM in experiment [4] is -90%; in experiment [5] it was -49%; in experiment [13], -2%; in [14] it was -80%. Moreover, the growth at 0.01 µM in [7] stood at 101%; in [10], 99%; in [15], 101%; in experiment [16] it was 100%; in experiment [17], 101%; in experiment [19], 96%. Also, in experiment [8], the growth at 1 µM worked out at 73%.
For the molecule `Cc1nc2cc(O)c(O)cc2cc1Oc1ccc(NC(=O)Nc2ccc(Cl)c(Cl)c2)cc1`, the growth at 0.3 µM in experiment [21] amounted to 107%; in [22], 97%; in [23], 91%; in experiment [25] it was 94%; in [27], 77%; in experiment [31], 97%. Moreover, the growth at 0.003 µM in experiment [24] worked out at 102%. Also, the growth at 3 µM came to 100% in [26], 106% in [28], 71% in experiment [30] and 107% in [33]. For the same molecule, the growth at 30 µM is 3% in experiment [29], 2% in [32] and 7% in experiment [34].
Take `COc1cc2cc(Oc3ccc(NC(=O)Nc4ccc(Cl)c(Cl)c4)cc3)c(C)nc2cc1OC`: the growth at 100 µM in experiment [1] is -76%; in [6], -56%; in experiment [9], -100%; in experiment [12], -57%. Further, the growth at 0.1 µM in experiment [2] is 95%; in experiment [3] it was 93%; in experiment [11], 112%; in experiment [18], 109%; in [20], 89%. In addition, the growth at 10 µM was -25% in experiment [4], 13% in [5], 19% in experiment [13] and 34% in experiment [14]. For the same molecule, the growth at 0.01 µM in experiment [7] was determined as 101%; in [10] it was 98%; in experiment [15], 93%; in [16] it was 94%; in [17], 96%; in [19], 110%. Besides, in [8], the growth at 1 µM came to 103%.
Turning to `COc1cc2cc(Oc3ccc(NC(=O)Nc4ccc(Cl)c(C(F)(F)F)c4)cc3)c(C)nc2cc1OC`, the growth at 0.3 µM in [21] stood at 95%; in [22], 85%; in experiment [23], 84%; in experiment [25], 96%; in experiment [27], 84%; in [31], 109%. Also, the growth at 0.003 µM in [24] came to 96%. Further, the growth at 3 µM was -17% in [26], -2% in experiment [28], 9% in experiment [30] and 14% in experiment [33]. Moreover, the growth at 30 µM is -39% in experiment [29], -36% in [32] and -51% in experiment [34].
